Drawing on patent publication US10570117B2, “Phenylimidazole compound” (Otsuka Pharmaceutical Factory, Inc., priority 2015, dated 2020), this text covers solubility, fold induction and melting point for 34 molecules.

The structures appear in SMILES notation. ≈ marks a conversion by molar mass, not a printed value. Like-named read-outs stand apart in the source and are kept apart here. Bounds are passed on as bounds.

A short description of series [1]: Solubility in gastric juice or intestinal juice model fluid (precipitation method using DMSO). The format is physicochemical. Particulars: room temperature. Summed up:
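Dissolved amount (μg/mL) quantified by UV of filtrate versus pre-made calibration curves. Precipitation approach: DMSO solutions spiked into pH 1.2 (JP 1st fluid) or pH 6.8 (JP 2nd fluid) medium, shaken at room temperature for 24 h before insolubles were filtered off.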

Series [2] relates to lipoprotein lipase (LPL) gene. Nature of the series: LPL mRNA elevating action (RT-PCR quantification of LPL mRNA in C2Cl2 cells). The settings on record: Mus musculus, 24 h, compound 10 μM, ratio relative to the amount of LPL mRNA in cells with DMSO only, read-out: Rate of increase in LPL mRNA. It is filed as cell-based, mouse. On the procedure: LPL mRNA Elevating Action
C2Cl2 cells (cell strain derived from striated muscle of mouse) were seeded in 96-well plates using a DMEM medium (Gibco) (containing 2 mM L-glutamine and 10% fetal bovine serum). After the cells were grown, the medium was removed. Subsequently, media obtained by adding dimethyl sulfoxide (DMSO) solutions of the compounds to the same medium as described above to a concentration of 10 μM were individually added to the cells and allowed to stand for 24 hours. The compound-containing media were removed, and the plates were washed with phosphate buffered saline. Thereafter, the remaining cells were lysed and subjected to a reverse transcription polymerase chain reaction (RT-PCR reaction) to obtain cDNA. Primers specific to lipoprotein lipase (LPL) gene, a necessary enzyme, etc., were added to the obtained cDNA. The mixture was set in 7500 Fast Real Time PCR System produced by Applied Biosystem to perform a PCR reaction (20 cycles) and the amount of LPL mRNA amplified was quantified. The LPL mRNA elevating action of each compound in the test cells was indicated as the ratio relative to the amount of LPL mRNA in cells allowed to stand in a medium to which only DMSO was added, with the amount being defined as 1.
As Comparative Example 1, a test was performed in the same manner as above, using a compound disclosed as the compound of Example 57 in WO2010/090200.

Setting [3] is: pH 1.2, simulated gastric fluid, kinetic from dmso stock, 1st fluid for Disintegration Test of Japanese Pharmacopoeia (pH: 1.2), read-out: Solubility (μg/mL) 1st fluid.
[4] abbreviates: pH 6.8, kinetic from dmso stock, 2nd fluid for Disintegration Test of Japanese Pharmacopoeia (pH: 6.8), read-out: Solubility (μg/mL) 2nd fluid.

Consider `COc1cc(OCc2ccncc2C(F)(F)F)ccc1-c1[nH]c(-c2ccc(F)nc2)nc1Br` [Example 276], for which the melting point (usually the temperature of the solid-liquid transition) is 199 to 203 °C (dec.). In addition, the solubility at 24 h in series [1] (setting [3]) is 66.5 µg/mL (≈ 127 µM). For the same molecule, the solubility at 24 h in series [1] (setting [4]) was determined as 6.7 µg/mL (≈ 12.8 µM). Besides, in series [2], the fold induction at 10 µM is 2.36.
The molecule `COc1cc(OCc2ncccc2C#N)ccc1-c1[nH]c(C2CCC(F)(F)CC2)nc1Cl` [Example 185] returned a melting point of 161 to 162 °C. Further, the solubility at 24 h in series [1] (setting [3]) was 87.4 µg/mL (≈ 190 µM). Besides, the solubility at 24 h in series [1] (setting [4]) turned out to be 23.1 µg/mL (≈ 50.3 µM). Further, the fold induction at 10 µM in series [2] was 2.41.
Take `COc1cc(OCc2ncc(C(F)(F)F)cc2F)ccc1-c1[nH]c(-c2ccc(F)nc2)nc1Cl` [Example 281]: the melting point fell in the range of 150 to 152 °C. In addition, the solubility at 24 h in series [1] (setting [3]) is 9.7 µg/mL (≈ 19.5 µM). For the same molecule, the solubility at 24 h in series [1] (setting [4]) came to 9.3 µg/mL (≈ 18.7 µM). In addition, the fold induction at 10 µM in series [2] is 3.36.
In the same order, the values of `COc1cc(-c2[nH]c(C3CCC3)nc2Cl)ccc1OCc1ncc(C(F)(F)F)cc1F` [Example 374] are 159 to 162 °C, 88.3 µg/mL (≈ 194 µM), 1.2 µg/mL (≈ 2.63 µM) and 2.6.
Molecule `COc1cc(OCc2ccc(C(F)(F)F)nc2)ccc1-c1[nH]c(C2CCC(F)(F)CC2)nc1Cl` [Example 204] came in with a melting point of 122 to 125 °C. Also, the solubility at 24 h in series [1] (setting [3]) was over 100 µg/mL. Also, the solubility at 24 h in series [1] (setting [4]) was under 8.9 µg/mL. The fold induction at 10 µM in series [2] was found to be 5.07.
For `COc1cc(-c2[nH]c(C3CCC(F)(F)CC3)nc2Cl)ccc1OCc1ccc(C(F)(F)F)cn1` [Example 209], in that order: 175 to 177 °C, 99.4 µg/mL (≈ 198 µM), under 0.4 µg/mL and 5.34.
With `COc1cc(O[C@H](C)c2ccc(C(F)(F)F)cc2)ccc1-c1[nH]c(-c2ccc(F)nc2)nc1Cl` [Example 290], the melting point was in the range of 137 to 139 °C. Also, the solubility at 24 h in series [1] (setting [3]) is under 0.3 µg/mL. In addition, in series [1] (setting [4]), the solubility at 24 h was 27.6 µg/mL (≈ 56.1 µM). In series [2], the fold induction at 10 µM is 2.64.
For `COc1cc(OCc2ccc(C(F)(F)F)cn2)ccc1-c1c[nH]c(-c2ccc(C)nc2)n1` [Example 80], in that order: 203 to 205 °C, 84.9 µg/mL (≈ 193 µM), 0.4 µg/mL (≈ 0.908 µM) and 2.01.
Molecule `Fc1ccc(-c2nc(Br)c(-c3ccc(OCc4ncc(C(F)(F)F)cc4F)cc3)[nH]2)cn1` [Example 345] came in with a melting point of 155 to 158 °C. Moreover, the solubility at 24 h in series [1] (setting [3]) is under 0.4 µg/mL. The solubility at 24 h in series [1] (setting [4]) is under 0.4 µg/mL. Moreover, the fold induction at 10 µM in series [2] was found to be 2.39.
Consider `COc1cc(OCc2ccccc2)ccc1-c1[nH]c(-c2ccc(F)nc2)nc1C` [Example 332], for which the melting point lay in the range of 169 to 171 °C. In addition, in series [1] (setting [3]), the solubility at 24 h was 77.7 µg/mL (≈ 200 µM). Also, the solubility at 24 h in series [1] (setting [4]) was determined as 3.3 µg/mL (≈ 8.47 µM). Also, the fold induction at 10 µM in series [2] was 1.91.
For `COc1cc(OCc2noc(C3CC3)n2)ccc1-c1cnc(-c2ccc(F)nc2)[nH]1` [Example 334], in that order: 153 to 158 °C, 76.6 µg/mL (≈ 188 µM), 7.8 µg/mL (≈ 19.1 µM) and 1.78.
In the same order, the values of `COc1cc(OCc2cnc(C)cn2)ccc1-c1c[nH]c(-c2ccc(F)nc2)n1` [Example 122] are 167 to 170 °C, 71.8 µg/mL (≈ 183 µM), 2.9 µg/mL (≈ 7.41 µM) and 1.7.
In the same order, the values of `COc1cc(OCc2ncc(Cl)cc2C(F)(F)F)ccc1-c1[nH]c(-c2ccc(F)nc2)nc1Br` [Example 274] are 167 to 168 °C, 6.7 µg/mL (≈ 12 µM), 0.4 µg/mL (≈ 0.717 µM) and 3.41.
As for `COc1cc(OCc2ccnc(C(F)(F)F)c2)ccc1-c1cnc(-c2ccc(F)nc2)[nH]1` [Example 135], the melting point is 212 to 244 °C. The solubility at 24 h in series [1] (setting [3]) was 6.8 µg/mL (≈ 15.3 µM). Also, in series [1] (setting [4]), the solubility at 24 h was 2.2 µg/mL (≈ 4.95 µM). Also, the fold induction at 10 µM in series [2] is 3.14.
In the same order, the values of `COc1cc(OCc2ncccc2C(F)(F)F)ccc1-c1[nH]c(-c2ccc(Cl)nc2)nc1Br` [Example 253] are 176 to 186 °C, 5.9 µg/mL (≈ 10.9 µM), 1 µg/mL (≈ 1.85 µM) and 2.62.
For `Oc1cc(OCc2ncc(C(F)(F)F)cc2F)ccc1-c1[nH]c(-c2ccc(F)nc2)nc1Cl` [Example 407], in that order: 229 to 233 °C (dec.), 2.7 µg/mL (≈ 5.59 µM), under 0.3 µg/mL and 1.68.
For `COc1cc(OCc2ncc(Br)cc2F)ccc1-c1[nH]c(-c2ccc(F)nc2)nc1Cl` [Example 175], in that order: 122 to 124 °C, 10 µg/mL (≈ 19.7 µM), 2.5 µg/mL (≈ 4.92 µM) and 3.94.
In the case of `COc1cc(OCc2ncc(Cl)cc2F)ccc1-c1[nH]c(-c2ccc(Cl)nc2)nc1Cl` [Example 249], the melting point fell in the range of 174 to 181 °C. In addition, in series [2], the fold induction at 10 µM was 2.5.
In the same order, the values of `COc1cc(OCc2ccc(C(F)(F)F)nc2)ccc1-c1c[nH]c(-c2ccc(Cl)cn2)n1` [Example 32] are 186 to 189 °C and 2.58.
For `COc1cc(OCc2ccc(C(F)(F)F)nc2)ccc1-c1nc(-c2ccc(F)nc2)[nH]c1Br` [Example 224, 5-[(4-(4-bromo-2-(6-fluoropyridin-3-yl)-1H-imidazol-5-yl)-3-methoxyphenoxy)methyl]-2-(trifluoromethyl)pyridine], in that order: 195 to 197 °C (dec.) and 2.29.
For `COc1cc(OCc2ncc(Cl)cc2Br)ccc1-c1[nH]c(-c2ccc(F)nc2)nc1Br` [Example 264], in that order: 196 to 203 °C and 2.99.
Turning to `COc1cc(OCc2ncccc2C#N)ccc1-c1c[nH]c(-c2ccc(Cl)nc2)n1` [Example 33], the melting point fell in the range of 193 to 195 °C. The fold induction at 10 µM in series [2] was 2.92.
`COc1cc(OCc2ncc(Cl)cc2F)ccc1-c1[nH]c(-c2ccc(Cl)nc2)nc1Br` [Example 248] displayed a melting point of 172 to 176 °C. In addition, in series [2], the fold induction at 10 µM was 2.36.
The molecule `Fc1ccc(-c2nc(F)c(-c3ccc(OCc4ncc(C(F)(F)F)cc4F)cc3)[nH]2)cn1` [Example 356] gave a melting point of 222 to 227 °C. The fold induction at 10 µM in series [2] turned out to be 2.06.
For `COc1cc(OCc2ncc(C(F)(F)F)cc2Br)ccc1-c1[nH]c(-c2ccc(F)nc2)nc1Cl` [Example 263], in that order: 166 to 170 °C and 3.18.
Regarding `COc1cc(OCc2cnc(Cl)cn2)ccc1-c1c[nH]c(-c2ccc(F)nc2)n1` [Example 123], the melting point was in the range of 197 to 199 °C. The fold induction at 10 µM in series [2] came to 3.22.
In the case of `COc1cc(OCc2ccc(C(F)(F)F)nc2)ccc1-c1nc(-c2ccc(F)nc2)[nH]c1Cl` [Example 227], the melting point is 176 to 177 °C. Further, the fold induction at 10 µM in series [2] was determined as 5.08.
For `COc1cc(OCc2cccc(C(F)(F)F)n2)ccc1-c1c[nH]c(-c2ccc(Cl)nc2)n1` [Example 36], in that order: 222 to 224 °C and 2.4.
In the same order, the values of `COc1cc(OCc2cnc(Cl)cn2)ccc1-c1c[nH]c(-c2ccc(Cl)nc2)n1` [Example 20] are 219 to 221 °C and 2.78.
For `COc1cc(OCc2cccnc2C(F)(F)F)ccc1-c1[nH]c(-c2ccc(F)nc2)nc1Cl` [Example 287], in that order: 165 to 171 °C and 3.53.
With `COc1cc(OCc2ccncc2C(F)(F)F)ccc1-c1[nH]c(-c2ccc(F)nc2)nc1Cl` [Example 277], the melting point was 203 to 208 °C. Further, in series [2], the fold induction at 10 µM is 2.66.
Molecule `COc1cc(OCc2ccc(F)cc2F)ccc1-c1[nH]c(-c2ccc(F)nc2)nc1Br` [Example 258] yielded a melting point of 164 to 166 °C. Also, the fold induction at 10 µM in series [2] stood at 2.91.
For `COc1cc(OCc2ccc(C(F)(F)F)cn2)ccc1-c1nc(-c2ccc(Cl)nc2)[nH]c1Cl` [Example 235], in that order: 180 to 182 °C and 2.78.
For the molecule `COc1cc(-c2c[nH]c(-c3ccc(Cl)nc3)n2)cc(OC)c1OCc1ccc(C(F)(F)F)cn1` [Example 71], the melting point is 171 to 173 °C (dec.). The fold induction at 10 µM in series [2] amounted to 2.37.
